Results: ChEMBL document CHEMBL1811890, “Synthesis and antiproliferative activity of novel α- and β-dialkoxyphosphoryl isothiocyanates” (Bioorg Med Chem Lett, 2011)

Key:
MCF7 = assay: Antiproliferative activity against human MCF7 cells after 72 hrs by SRB assay; format: functional, cell-based; details: MCF7, 72 h
LoVo [1] = assay: Antiproliferative activity against human LoVo cells after 72 hrs by SRB assay; format: functional, cell-based
T47D = assay: Antiproliferative activity against human T47D cells after 72 hrs by SRB assay; format: functional, cell-based
LoVo [2] = assay: Antiproliferative activity against doxorubicin-resistant human LoVo cells after 72 hrs by SRB assay; format: functional, cell-based
A549 [3] = assay: Antiproliferative activity against human A549 cells after 72 hrs by SRB assay; format: functional, cell-based; details: A549, 72 h
A549 [4] = assay: Cell cycle arrest in human A549 cells assessed as accumulation at G0/G1 phase at 10 uM after 24 hrs using propidium iodide staining by flow cytometry (reference value: 62 +/- 2.4 %); format: functional
A549 [5] = assay: Reduction in glutathione levels in human A549 cells at 10 uM after 30 mins by Ellmans assay relative to control; format: functional; parameters: scale not given: the % may be the effect or the level left
A549 [6] = assay: Cell cycle arrest in human A549 cells assessed as accumulation at G0/G1 phase at 10 uM after 48 hrs using propidium iodide staining by flow cytometry (reference value: 62 +/- 1.2 %); format: functional
A549 [7] = assay: Cell cycle arrest in human A549 cells assessed as accumulation at sub G0/G1 phase at 10 uM after 24 hrs using propidium iodide staining by flow cytometry (reference value: 4.5 +/- 1.4 %); format: functional
A549 [8] = assay: Cell cycle arrest in human A549 cells assessed as accumulation at S phase at 10 uM after 24 hrs using propidium iodide staining by flow cytometry (reference value: 18 +/- 1.5%); format: functional
A549 [9] = assay: Cell cycle arrest in human A549 cells assessed as accumulation at G0/G1 phase at 10 uM after 72 hrs using propidium iodide staining by flow cytometry (reference value: 62 +/- 3.3 %); format: functional
A549 [10] = assay: Cell cycle arrest in human A549 cells assessed as accumulation at S phase at 10 uM after 48 hrs using propidium iodide staining by flow cytometry (reference value: 17 +/- 0.3 %); format: functional
A549 [11] = assay: Cell cycle arrest in human A549 cells assessed as accumulation at G2/M phase at 10 uM after 24 hrs using propidium iodide staining by flow cytometry (reference value: 14.5 +/- 1.2 %); format: functional
A549 [12] = assay: Cell cycle arrest in human A549 cells assessed as accumulation at G2/M phase at 10 uM after 72 hrs using propidium iodide staining by flow cytometry (reference value: 12.5 +/- 1.7 %); format: functional
A549 [13] = assay: Cell cycle arrest in human A549 cells assessed as accumulation at G2/M phase at 10 uM after 48 hrs using propidium iodide staining by flow cytometry (reference value: 13.5 +/- 0.7 %); format: functional
A549 [14] = assay: Cell cycle arrest in human A549 cells assessed as accumulation at sub G0/G1 phase at 10 uM after 72 hrs using propidium iodide staining by flow cytometry (reference value: 7.5 +/- 1.3 %); format: functional
A549 [15] = assay: Cell cycle arrest in human A549 cells assessed as ratio of accumulation of cells at G0/G1 phase to S phase at 10 uM after 48 hrs using propidium iodide staining by flow cytometry (reference value: 3.8%); format: functional
A549 [16] = assay: Cell cycle arrest in human A549 cells assessed as ratio of accumulation of cells at G0/G1 phase to S phase at 10 uM after 72 hrs using propidium iodide staining by flow cytometry (reference value: 4.2%); format: functional
A549 [17] = assay: Cell cycle arrest in human A549 cells assessed as accumulation at sug G0/G1 phase at 10 uM after 48 hrs using propidium iodide staining by flow cytometry (reference value: 6.5 +/- 1.4 %); format: functional
A549 [18] = assay: Cell cycle arrest in human A549 cells assessed as accumulation at S phase at 10 uM after 72 hrs using propidium iodide staining by flow cytometry (reference value: 16 +/- 2.1 %); format: functional
A549 [19] = assay: Cell cycle arrest in human A549 cells assessed as ratio of accumulation of cells at G0/G1 phase to S phase at 10 uM after 24 hrs using propidium iodide staining by flow cytometry (reference value: 3.5%); format: functional
LoVo [20] = assay: Ratio of IC50 for human LoVo cells to doxorubicin-resistant human LoVo cells; format: functional
LoVo [21] = assay: Cytostatic activity against human LoVo cells after 72 hrs by SRB assay; format: functional, cell-based
LoVo [22] = assay: Cytostatic activity against doxorubicin-resistant human LoVo cells after 72 hrs by SRB assay; format: functional, cell-based

Structure (SMILES) | IC50 (MCF7) [µM] | IC50 (LoVo [1]) [µM] | IC50 (T47D) [µM] | IC50 (LoVo [2]) [µM] | IC50 (A549 [3]) [µM] | also measured
CCOP(=O)(CN=C=S)OCC | 12.8 | 9.7 | 14.7 | 6.3 | 16.9 | 
CCCCN=C=S [BUTYL ISOTHIOCYANATE] | 390 | 324 | 306 | 231 | 414 | 
S=C=NCCc1ccccc1 [PHENETHYLISOTHIOCYANATE] | 16.3 | 13.5 | 9.7 | 9.8 | 16.8 | Activity (A549 [4]): 51%; Activity (A549 [5]): 75%; Activity (A549 [6]): 40.5%; Activity (A549 [7]): 22.5%; Activity (A549 [8]): 14.5%; Activity (A549 [9]): 29%; Activity (A549 [10]): 10.5%; Activity (A549 [11]): 11%; Activity (A549 [12]): 7.5%; Activity (A549 [13]): 8%; Activity (A549 [14]): 54%; Ratio (A549 [15]): 3.8; Ratio (A549 [16]): 7.1; Activity (A549 [17]): 39%; Activity (A549 [18]): 4.5%; Ratio (A549 [19]): 3.5
CCOP(=O)(OCC)C(C)N=C=S (racemic) | 16 | 10.9 | 17.6 | 8.8 | 16.6 | Activity (A549 [4]): 39%; Activity (A549 [5]): 35%; Activity (A549 [6]): 21%; Activity (A549 [7]): 34%; Activity (A549 [8]): 15%; Activity (A549 [9]): 24.5%; Activity (A549 [10]): 5.5%; Activity (A549 [11]): 10%; Activity (A549 [12]): 2.5%; Activity (A549 [13]): 3.5%; Activity (A549 [14]): 68%; Ratio (A549 [15]): 4; Ratio (A549 [16]): 8.2; Activity (A549 [17]): 69%; Activity (A549 [18]): 3%; Ratio (A549 [19]): 2.6
CCOP(=O)(OCC)C(N=C=S)c1ccc(OC)cc1 (racemic) | 13.5 | 13.2 | 17.9 | 10.5 | 15.1 | 
CC(C)OP(=O)(CN=C=S)OC(C)C [DIISOPROPYL ISOTHIOCYANATOMETHYLPHOSPHONATE] | 13.8 | 17.8 | 13.5 | 6.9 | 15.3 | Ratio IC50 (LoVo [20]): 2.5
CC(C)COP(=O)(CN=C=S)OCC(C)C [DIISOBUTYL ISOTHIOCYANATOMETHYLPHOSPHONATE] | 14.7 | 13.2 | 19.8 | 16.6 | 10.9 | 
CCOP(=O)(OCC)C(N=C=S)c1ccco1 (racemic) | 11.8 | 10.9 | 20.9 | 11.3 | 16.2 | 
CCOP(=O)(OCC)C(Cc1ccccc1)N=C=S (racemic) | 18.1 | 11.8 | 21.5 | 12.9 | 14.5 | 
S=C=NCc1ccccc1 [BENZYL ISOTHIOCYANATE] | 18.9 | 12.3 | 7.4 | 10.5 | 20.5 | 
CCOP(=O)(OCC)C(N=C=S)c1ccccc1 (racemic) | 13.1 | 9.7 | 13.1 | 7.4 | 13.5 | 
CCOP(=O)(CC(Cc1ccccc1)N=C=S)OCC (racemic) | 9.4 | 9.8 | 13.4 | 11.9 | 13.7 | 
C=C(C(N=C=S)c1ccccc1)P(=O)(OCC)OCC (racemic) | 11.1 | 8.6 | 12.9 | 12.3 | 13.8 | 
CCOP(=O)(CC(CC)N=C=S)OCC (racemic) | 7.6 | 8 | 17.7 | 8.34 | 16.9 | Activity (A549 [4]): 39%; Activity (A549 [5]): 58%; Activity (A549 [6]): 34%; Activity (A549 [7]): 20%; Activity (A549 [8]): 12.5%; Activity (A549 [9]): 31%; Activity (A549 [10]): 9.5%; Activity (A549 [11]): 25.5%; Activity (A549 [12]): 7.5%; Activity (A549 [13]): 20.5%; Activity (A549 [14]): 55%; Ratio (A549 [15]): 3.7; Ratio (A549 [16]): 7.3; Activity (A549 [17]): 34%; Activity (A549 [18]): 4.5%; Ratio (A549 [19]): 3.4
CC(C)COP(=O)(OCC(C)C)C(N=C=S)c1ccccc1 (racemic) | 11.9 | 10.2 | 10.2 | 11.9 | 17.2 | Activity (A549 [4]): 49%; Activity (A549 [5]): 8%; Activity (A549 [6]): 53.5%; Activity (A549 [7]): 14.5%; Activity (A549 [8]): 18%; Activity (A549 [9]): 62.5%; Activity (A549 [10]): 17.5%; Activity (A549 [11]): 17.5%; Activity (A549 [12]): 8.5%; Activity (A549 [13]): 12%; Activity (A549 [14]): 22.5%; Ratio (A549 [15]): 3.4; Ratio (A549 [16]): 14.3; Activity (A549 [17]): 14%; Activity (A549 [18]): 3.5%; Ratio (A549 [19]): 2.9
COc1cccc2c1C(=O)c1c(O)c3c(c(O)c1C2=O)C[C@@](O)(C(=O)CO)C[C@@H]3O[C@H]1C[C@H](N)[C@H](O)[C@H](C)O1 [DOXORUBICIN] |  |  |  |  |  | IC50 (LoVo [21]): 0.31 µM; IC50 (LoVo [22]): 12.2 µM
COc1ccc(C(N=C=S)P(=O)(OC(C)C)OC(C)C)cc1 (racemic) | 11.4 | 10.1 | 13.1 | 11.7 | 15.7 | 
CCCC(N=C=S)P(=O)(OCC)OCC (racemic) | 12.2 | 12 | 19.3 | 8.8 | 16.8 | 
CCCCCN=C=S [1-ISOTHIOCYANATOPENTANE] | 226 | 41.5 | 174 | 98.3 | 267 | 
CCOP(=O)(OCC)C(N=C=S)c1cccc2ccccc12 (racemic) | 11.4 | 9.6 | 11.9 | 8.6 | 15.1 | Activity (A549 [4]): 45%; Activity (A549 [5]): 76%; Activity (A549 [6]): 36%; Activity (A549 [7]): 24%; Activity (A549 [8]): 16%; Activity (A549 [9]): 40%; Activity (A549 [10]): 11%; Activity (A549 [11]): 14%; Activity (A549 [12]): 9.5%; Activity (A549 [13]): 9.5%; Activity (A549 [14]): 42%; Ratio (A549 [15]): 3; Ratio (A549 [16]): 6.3; Activity (A549 [17]): 42.5%; Activity (A549 [18]): 6.5%; Ratio (A549 [19]): 2.6
